Test results reported in patent US7741355B2, “Small-molecule modulators of TRP-p8 activity” (Dendreon Corporation, priority 2006, dated 2010).

Key:
[1] = target: T1, Trp-p8 (Homo sapiens, UniProt Q7Z2W7, T58I); assay: ATP viability assay with CHO/Trp-p8 cells at 37° C.; type: cell-based; conditions: ATP viability assay
T1 construct: expressed in transfected cells; host or cells: CHO (Chinese Hamster Ovary) cells
Source text: (§1) Human Trp-p8 transfected CHO cells (referred to herein as CHO/Trp-p8) were generated for use in experiments of the present invention. Expression of Trp-p8 polypeptide in this transfectant and the absence of any endogenous expression in the non-transfected CHO was confirmed by western blot and immunofluorescence using a Trp-p8 specific antibody (GS2.20) as well as the calcium flux assay with Icilin (1-[2-hydroxyphenyl]-4-[3-nitrophenyl]-1,2,3,6-tetrahydropyrimidine-2-one) and menthol (2-isopropyl-5-methyl-cyclohexanol). Non-transfected CHO cells were used to establish the specificity of the effects of the compounds observed with CHO/Trp-p8.
This Example discloses an ATP viability assay suitable for screening for effective Trp-p8 agonists. The ATP viability assay described herein employs CHO cells expressing an exogenous Trp-p8 cDNA. This example further establishes that Trp-p8 agonists of the present invention are effective in decreasing the viability of Trp-p8 expressing cells.
The concentration of intracellular ATP declines very rapidly when metabolically active cells undergo necrosis and/or apoptosis. The ATP concentration and consequently the relative cell viability can be measured by established methods using commercially available reagents. In the agonist screening methodology disclosed herein, a compound that specifically decreases the viability of CHO/Trp-p8 cells is referred to as an agonist.
(§2) As a primary screen for efficacy and specificity for agonists, both the non-transfected CHO and CHO/Trp-p8 cells were exposed to 1 or 10 μM of test compounds in 1% dimethylsulfoxide (DMSO) or 1% DMSO (control) in a 96-well black walled, black-bottomed, cell-culture treated plate. DMSO was the solvent for all of the compounds tested. After 24-26 hours at 37° C., the cells were lysed and ATP concentration determined via a chemiluminescence assay using a commercially available reagent kit—Cell Titer-Glo (Promega; Madison, Wis.). […] (EC50 is defined herein as the agonist concentration at which there is a 50% reduction in relative cell viability).

[2] = system: Parent CHO; assay: ATP viability assay with non-transfected (parent) CHO cells; type: cell-based, Chinese Hamster; conditions: Cricetulus griseus
Source text: as §1, §2

[3] = system: CHO/Trp-p8 xenograft; assay: CHO/Trp-p8 murine tumor xenograft model; type: in vivo, mice
Experimental: FIGS. 6A-6B are graphs depicting results from an exemplary animal model suitable for testing and characterizing small-molecule Trp-p8 modulators of the present invention. Mice were injected subcutaneously with CHO/Trp-p8 cells, resulting in the formation of solid tumors. The length (longest dimension) and width (dimension perpendicular to and in the same plane as length) of each tumor was measured with Vernier calipers, and the tumor volume was approximated by a formula for the volume of an ellipsoid: 0.52*L*W^2. When the average tumor volume reached approximately 100 mm^3, the mice were randomized into groups. In FIG. 6A, the mice were administered a single dose of either a study compound as an aqueous formulation, or vehicle alone, by oral gavage. […] Tumors were then subsequently measured on the indicated days. […]
Mice were injected subcutaneously with CHO/Trp-p8 cells, resulting in the formation of solid tumors. The length (L; longest dimension) and width (W; dimension perpendicular to and in the same plane as length) of each tumor was measured with calipers, and the tumor volume was approximated by a formula for the volume of an ellipsoid: 0.52*L*W^2. […] Tumors were subsequently measured on the indicated days. […]
Mice were injected subcutaneously with CHO/Trp-p8 cells, resulting in the formation of solid tumors. […] Tumors were then subsequently measured on the indicated days. […]

[4] = system: CHO-K1 cells lacking Trp-p8; assay: Matched CHO (Trp-p8-) murine tumor xenograft model (CHO-K1 cells lacking Trp-p8); type: in vivo, mice; conditions: 100 mg/kg, single oral dose
Experimental: Mice were injected subcutaneously with CHO-K1 cells lacking Trp-p8, resulting in the formation of solid tumors. The length (L; longest dimension) and width (W; dimension perpendicular to and in the same plane as length) of each tumor was measured with Vernier calipers, and the tumor volume was approximated by a formula for the volume of an ellipsoid: 0.52*L*W^2. When the average tumor volume reached approximately 50 mm^3, the mice were randomized into groups, and administered either a single dose of the compound as an aqueous formulation, or vehicle, by oral gavage. Tumors were then subsequently measured on the indicated days. The data is presented as mean tumor volumes±standard error of the mean.

[5] = system: LuCaP; assay: LuCaP murine tumor xenograft model expressing Trp-p8; type: in vivo, mice; conditions: intraperitoneal injection, once a day for 5 days; slower-growing tumor
Experimental: The LuCaP tumor model was obtained from Robert L. Vassella, Ph.D., Professor of Urology in the University of Washington's School of Medicine. The length (L; longest dimension) and width (W; dimension perpendicular to and in the same plane as length) of each tumor was measured with Vernier calipers, and the tumor volume was approximated by a formula for the volume of an ellipsoid: 0.52*L*W^2. When the average tumor volume reached approximately 150 mm^3, the mice were administered the compound, as an aqueous formulation, by intraperitoneal injection, once a day for 5 days. Tumors were then subsequently measured on the indicated days. The data is presented as mean tumor volumes±standard error of the mean.
Human prostate cancer xenografts expressing Trp-p8 (LuCaP, from Dr. Robert Vessella's lab in University of Washington—as assessed by in situ hybridization, quantitative polymerase chain reaction, and immunohistochemistry using a protein specific rabbit polyclonal antibody, T-904), as well as cell lines engineered to express Trp-p8, including CHO (Chinese Hamster Ovary) and EL-4 (Mouse Thymoma) cell lines, were used to establish tumor models in mice. Trp-p8 expression in the transfectants was confirmed by western blots and immunofluorescence using a Trp-p8 specific antibody (GS 2.20) as well as by response to known agonists in a calcium influx functional assay. […]

[6] = Plasma concentrations in rats after a single oral dose; type: in vivo; conditions: rodents (FIG. 9A: rats), aqueous formulation, oral gavage
Source text: (§3) FIGS. 9A and 9B are graphs depicting the plasma concentrations of several compounds, as a function of time and dose, in rats (FIG. 9A), and dogs (FIG. 9B) after a single oral dose. […] Blood was collected at the indicated time points, and analyzed for drug levels.

[7] = Plasma concentrations in dogs after a single oral dose; type: in vivo; conditions: Beagle dogs (FIG. 9B), aqueous formulation, oral gavage
Source text: as §3

[8] = Sustained plasma levels after oral dosing (half-life, species not stated); type: in vivo; conditions: oral administration, read-out: t½ (sustained plasma levels) (converted)
Source text: as §3

T1 sequence (Q7Z2W7 whole entry T58I): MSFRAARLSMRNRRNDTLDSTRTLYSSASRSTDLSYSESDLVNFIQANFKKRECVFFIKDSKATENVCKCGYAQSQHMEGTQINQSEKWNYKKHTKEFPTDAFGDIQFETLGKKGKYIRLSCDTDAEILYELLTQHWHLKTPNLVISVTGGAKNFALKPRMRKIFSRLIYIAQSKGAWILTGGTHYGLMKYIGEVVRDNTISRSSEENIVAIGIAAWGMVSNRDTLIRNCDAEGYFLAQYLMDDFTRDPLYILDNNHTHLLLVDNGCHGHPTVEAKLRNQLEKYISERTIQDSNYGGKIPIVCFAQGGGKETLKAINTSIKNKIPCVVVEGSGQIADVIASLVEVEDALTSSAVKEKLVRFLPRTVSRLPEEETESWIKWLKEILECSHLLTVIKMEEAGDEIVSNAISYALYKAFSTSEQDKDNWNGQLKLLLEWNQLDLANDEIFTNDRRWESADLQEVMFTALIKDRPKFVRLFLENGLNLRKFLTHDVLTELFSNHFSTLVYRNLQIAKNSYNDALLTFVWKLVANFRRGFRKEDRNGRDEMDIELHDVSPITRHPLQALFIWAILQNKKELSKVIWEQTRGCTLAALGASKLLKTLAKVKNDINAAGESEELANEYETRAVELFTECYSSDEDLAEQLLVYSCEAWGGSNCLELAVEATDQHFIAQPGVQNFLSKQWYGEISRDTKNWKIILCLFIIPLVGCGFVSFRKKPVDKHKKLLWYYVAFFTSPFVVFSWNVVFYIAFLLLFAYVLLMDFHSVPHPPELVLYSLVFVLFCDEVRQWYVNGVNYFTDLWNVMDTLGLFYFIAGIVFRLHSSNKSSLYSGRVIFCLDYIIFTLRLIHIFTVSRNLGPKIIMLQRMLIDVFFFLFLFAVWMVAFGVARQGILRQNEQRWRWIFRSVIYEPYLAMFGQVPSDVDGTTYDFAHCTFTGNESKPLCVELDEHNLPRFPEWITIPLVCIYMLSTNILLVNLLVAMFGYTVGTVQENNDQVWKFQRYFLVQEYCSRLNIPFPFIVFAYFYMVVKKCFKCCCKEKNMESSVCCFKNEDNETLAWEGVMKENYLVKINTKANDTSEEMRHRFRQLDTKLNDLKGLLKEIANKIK

COc1ccc2c(c1)n(CCN)c(=O)n2C(=O)[C@@H]1C[C@H](C)CC[C@H]1C(C)C [Compound I]
times more potent than Compounds II, III, and IV [1]: approximately 3 times
EC50 ([1]; read-out: CHO/Trp-p8 EC50): 3 nM
EC50 [2]: > 10000 nM
effect of treatment on tumor growth, CHO/Trp-p8 model ([3]; fast-growing tumor): attenuated growth, but did not cause regression
efficacy in the CHO/Trp-p8 xenograft model ([3]; single oral dose of 10 mg/kg): significant efficacy
efficacy in the matched CHO (Trp-p8-) model [4]: did not show significant efficacy
effect of treatment on tumor growth, LuCaP model [5]: statistically significant regression, as well as growth-inhibition
exposure after a single oral administration [6]: prolonged exposure
exposure after a single oral administration [7]: prolonged exposure
half-life [8]: ~9 h
